This note sets out measurements from patent US7598255B2 (Janssen Pharmaceutica NV, priority 2005, dated 2009).

Where a name gives a salt, the structure may show the parent alone. Some results are limits rather than exact numbers.

In experiment [1] the target is human recombinant 5-HT6 receptor (Homo sapiens, UniProt P50406). The experiment in a line: Affinity for 5-HT6 receptor binding sites, [3H]LSD. Particulars: HEK-293 h5-HT6 membranes.
In another experiment the target is rat 5-HT7a receptor (Rattus norvegicus, UniProt P32305). The experiment in a line: Affinity for 5-HT7 receptor binding sites, radioligand binding with [3H]5-CT. Particulars: membranes of HEK-293 cells with rat 5-HT7a, 1 nM [3H]5-CT. The procedure, abridged: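 Competition binding on membranes from HEK-293 cells stably expressing rat 5-HT7a, 135 μg protein/mL in 50 mM Tris-HCl pH 7.5, 5 mM EDTA. Incubated 60 min at RT with 1 nM [3H]5-CT and increasing compound concentrations; nonspecific binding with 10 μM 5-HT. Filtration and scintillation counting, in triplicate.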

Experiment [2] has as its target T1, human recombinant 5-HT2C receptor (Homo sapiens, UniProt P28335).
T1 sequence (P28335 33-458): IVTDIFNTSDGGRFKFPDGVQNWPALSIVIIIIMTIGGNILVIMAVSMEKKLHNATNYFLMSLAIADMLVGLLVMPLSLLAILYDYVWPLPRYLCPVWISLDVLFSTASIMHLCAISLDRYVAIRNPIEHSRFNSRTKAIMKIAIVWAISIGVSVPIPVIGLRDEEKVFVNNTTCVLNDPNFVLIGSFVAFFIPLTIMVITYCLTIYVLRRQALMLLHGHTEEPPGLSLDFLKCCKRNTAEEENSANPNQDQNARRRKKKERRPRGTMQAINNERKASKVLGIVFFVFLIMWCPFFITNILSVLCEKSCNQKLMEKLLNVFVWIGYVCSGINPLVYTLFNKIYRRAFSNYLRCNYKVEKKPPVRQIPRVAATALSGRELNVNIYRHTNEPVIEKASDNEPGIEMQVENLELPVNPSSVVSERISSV
The experiment in a line: Affinity for 5HT2 receptor binding sites, h5-HT2C, [3H]mesulergine. Particulars: CHO h5-HT2C membranes.
Experimental: (§1) Sigmoidal inhibition curves were generated and fitted by nonlinear regression analysis (GraphPad Prism).
Receptor binding was performed using the human recombinant 5-HT2A (GB: X57830), 5-HT2B (GB: Z36748) and 5-HT2C (GB: M81778) receptors. The affinity of the compounds for the 3 different human 5-HT2 receptor subtypes was evaluated by competitive radioligand binding assays using [^3H]ketanserin (h5-HT2A) or [^3H]mesulergine (h5-HT2B and h5-HT2C). The assays were performed on membranes prepared from NIH3T3 stably transfected with h5-HT2A or CHO stably transfected with h5-HT2B and h5-HT2C.

The next experiment concerns the target 5-HT2B receptor (Homo sapiens, UniProt P41595). The experiment in a line: Affinity for 5HT2 receptor binding sites, h5-HT2B, [3H]mesulergine. Particulars: CHO h5-HT2B membranes.
The next experiment concerns the target 5-HT2A receptor (Homo sapiens, UniProt P28223). The experiment in a line: Affinity for 5-HT2A receptor binding sites, radioligand binding with [3H]ketanserin. Particulars: read-out: Ki 5-HT2A, rat cortex membranes (assay 2) or NIH3T3 h5-HT2A membranes (assay 3), table does not say which.

Sequence of human recombinant 5-HT6 receptor (P50406 whole entry): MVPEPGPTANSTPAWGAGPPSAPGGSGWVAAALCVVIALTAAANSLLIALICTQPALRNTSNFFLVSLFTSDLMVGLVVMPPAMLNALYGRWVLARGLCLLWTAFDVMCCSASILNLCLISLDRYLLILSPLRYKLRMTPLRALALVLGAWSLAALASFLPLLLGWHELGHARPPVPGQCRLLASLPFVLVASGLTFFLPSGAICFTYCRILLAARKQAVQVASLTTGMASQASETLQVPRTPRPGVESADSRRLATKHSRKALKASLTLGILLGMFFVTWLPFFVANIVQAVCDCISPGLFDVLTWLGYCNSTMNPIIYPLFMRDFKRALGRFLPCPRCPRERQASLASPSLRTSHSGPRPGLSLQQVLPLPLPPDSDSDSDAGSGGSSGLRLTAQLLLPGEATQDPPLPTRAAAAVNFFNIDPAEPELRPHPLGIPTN
Sequence of rat 5-HT7a receptor (P32305 whole entry): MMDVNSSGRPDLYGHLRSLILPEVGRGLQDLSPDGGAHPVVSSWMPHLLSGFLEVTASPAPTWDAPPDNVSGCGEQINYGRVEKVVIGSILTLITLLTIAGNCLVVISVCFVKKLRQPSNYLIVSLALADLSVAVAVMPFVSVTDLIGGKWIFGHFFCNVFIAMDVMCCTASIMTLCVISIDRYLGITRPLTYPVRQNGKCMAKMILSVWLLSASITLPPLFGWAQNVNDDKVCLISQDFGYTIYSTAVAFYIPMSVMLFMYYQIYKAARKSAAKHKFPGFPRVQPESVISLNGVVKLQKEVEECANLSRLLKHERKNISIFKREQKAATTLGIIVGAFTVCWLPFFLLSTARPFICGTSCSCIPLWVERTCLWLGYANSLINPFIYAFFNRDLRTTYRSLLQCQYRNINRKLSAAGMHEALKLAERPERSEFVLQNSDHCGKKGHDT
Sequence of 5-HT2B receptor (P41595 whole entry): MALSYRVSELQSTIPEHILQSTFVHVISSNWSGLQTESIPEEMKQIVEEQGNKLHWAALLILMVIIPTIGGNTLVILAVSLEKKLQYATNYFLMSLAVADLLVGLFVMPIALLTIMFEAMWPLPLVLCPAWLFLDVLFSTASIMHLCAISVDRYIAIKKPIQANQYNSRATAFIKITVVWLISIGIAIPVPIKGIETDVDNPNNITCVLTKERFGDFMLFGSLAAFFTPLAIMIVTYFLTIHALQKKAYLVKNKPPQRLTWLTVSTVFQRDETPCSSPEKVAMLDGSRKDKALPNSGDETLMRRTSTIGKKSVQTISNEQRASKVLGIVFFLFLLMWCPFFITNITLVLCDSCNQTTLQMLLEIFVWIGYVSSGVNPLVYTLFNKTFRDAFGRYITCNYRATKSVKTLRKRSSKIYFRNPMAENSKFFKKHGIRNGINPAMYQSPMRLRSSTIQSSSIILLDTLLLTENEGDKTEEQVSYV
Experimental for 5-HT2A receptor: as §1
The affinity of the compounds for the rat 5-HT2A receptor was evaluated by competitive radioligand binding assay using [^3H]ketanserine as the radioligand. […] Brain tissue (rat cortex) was homogenized in 20 volumes per wet weight tissue of Tris-HCl buffer (50 mM, pH 7.4). The total membrane fraction was collected by centrifugation and washed by subsequent centrifugation runs (25 min at 25,000 g at 4° C.). Membranes were re-suspended in Tris-HCl buffer (50 mM, pH 7.4) containing 1 nM [^3H]ketanserin. Non-specific binding was estimated in the presence of 10 μM risperidone. The incubation was terminated by rapid filtration over Whatman GF/B filters pre-soaked in 0.1% polyethylenimine, and one washing step with 1 mL ice-cold Tris-HCl buffer, pH 7.4.

Broadly, the Ki is a measure of affinity in units of concentration, obtained from inhibition or displacement. Consider `CCC(C)c1nc2c(c(-c3ccc(F)cc3)n1)CNCC2` (stereo not shown) [Example 3, 2-sec-Butyl-4-(4-fluoro-phenyl)-5,6,7,8-tetrahydro-pyrido[4,3-d]pyrimidine hydrochloride], for which the Ki in experiment [1] was over 10 µM; at rat 5-HT7a receptor it was over 10 µM; in experiment [2], 1.02 µM; on 5-HT2B receptor, 2.25 µM.

Take `Cc1ccc(-c2nc(Cc3ccccc3)nc3c2CNCC3)cc1` [Example 8, 2-Benzyl-4-p-tolyl-5,6,7,8-tetrahydro-pyrido[4,3-d]pyrimidine]: the Ki in experiment [1] turned out to be 0.2 µM; on rat 5-HT7a receptor, 1 µM; in experiment [2], 0.32 µM; on 5-HT2B receptor, 1 µM; at 5-HT2A receptor, 0.02 µM.

For the compound `CC(C)c1nc2c(c(-c3ccc(Cl)cc3)n1)CNCC2` [Example 29, 4-(4-Chloro-phenyl)-2-isopropyl-5,6,7,8-tetrahydro-pyrido[4,3-d]pyrimidine], the Ki in experiment [1] was over 10 µM; at rat 5-HT7a receptor, over 10 µM; in experiment [2] it was 2 µM; at 5-HT2B receptor it was 1.6 µM; at 5-HT2A receptor, 0.24 µM.

For `Fc1ccc(-c2nc(C3CCCC3)nc3c2CCNCC3)cc1` [Example 46, 2-Cyclopentyl-4-(4-fluoro-phenyl)-6,7,8,9-tetrahydro-5H-pyrimido[4,5-d]azepine], the Ki in experiment [1] worked out at 0.1 µM; at rat 5-HT7a receptor, 0.12 µM; in experiment [2], 0.2 µM; at 5-HT2B receptor it was 0.03 µM; on 5-HT2A receptor, 0.014 µM.

For the compound `Cc1ccc(-c2nc(C3CCCC3)nc3c2CCNCC3)cc1` [Example 47, 2-Cyclopentyl-4-p-tolyl-6,7,8,9-tetrahydro-5H-pyrimido[4,5-d]azepine], the Ki in experiment [1] is 0.012 µM; on rat 5-HT7a receptor it was 0.03 µM; in experiment [2] it was 0.022 µM; at 5-HT2B receptor, 0.001 µM.

For `COc1ccc(-c2nc(C3CCCC3)nc3c2CCNCC3)cc1` [Example 48, 2-Cyclopentyl-4-(4-methoxy-phenyl)-6,7,8,9-tetrahydro-5H-pyrimido[4,5-d]azepine], the Ki in experiment [1] turned out to be 0.024 µM; at rat 5-HT7a receptor it was 0.04 µM; in experiment [2], 0.1 µM; on 5-HT2B receptor it was 0.003 µM; on 5-HT2A receptor, 0.02 µM.

`N#Cc1ccc(-c2nc(C3CCCC3)nc3c2CCNCC3)cc1` [Example 49, 4-(2-Cyclopentyl-6,7,8,9-tetrahydro-5H-pyrimido[4,5-d]azepin-4-yl)-benzonitrile]: the Ki in experiment [1] stood at 0.2 µM; on rat 5-HT7a receptor it was 0.3 µM; in experiment [2], 0.4 µM; on 5-HT2B receptor it was 0.025 µM; at 5-HT2A receptor, 0.05 µM.

As to `Fc1ccc(-c2nc(Cc3ccccc3)nc3c2CCNCC3)cc1` [Example 54, 2-Benzyl-4-(4-fluoro-phenyl)-6,7,8,9-tetrahydro-5H-pyrimido[4,5-d]azepine], the Ki in experiment [1] turned out to be 0.03 µM; at rat 5-HT7a receptor, 5 µM; in experiment [2], 0.02 µM; on 5-HT2B receptor, 0.03 µM; on 5-HT2A receptor, 0.00055 µM.

For `Cc1ccc(-c2nc(Cc3ccccc3)nc3c2CCNCC3)cc1` [Example 55, 2-Benzyl-4-p-tolyl-6,7,8,9-tetrahydro-5H-pyrimido[4,5-d]azepine], the Ki in experiment [1] is 0.0085 µM; at rat 5-HT7a receptor, 0.035 µM; in experiment [2], 0.016 µM; on 5-HT2B receptor, 0.0025 µM; on 5-HT2A receptor, 0.00042 µM.

On to `FC(F)(F)c1ccc(-c2nc(Cc3ccccc3)nc3c2CCNCC3)cc1` [Example 56, 2-Benzyl-4-(4-trifluoromethyl-phenyl)-6,7,8,9-tetrahydro-5H-pyrimido[4,5-d]azepine], for which the inhibition constant Ki in experiment [1] amounted to 0.03 µM; on rat 5-HT7a receptor, 0.18 µM; in experiment [2], 0.038 µM; at 5-HT2B receptor, 0.022 µM; on 5-HT2A receptor it was 0.0008 µM.

Regarding `CN1CCc2nc(C3CCCC3)nc(-c3ccc(F)cc3)c2CC1` [Example 58, 2-Cyclopentyl-4-(4-fluoro-phenyl)-7-methyl-6,7,8,9-tetrahydro-5H-pyrimido[4,5-d]azepine], the inhibitory constant (Ki) in experiment [1] was 0.1 µM; on rat 5-HT7a receptor it was over 10 µM; in experiment [2], 0.03 µM; at 5-HT2B receptor, 0.04 µM; on 5-HT2A receptor it was 0.002 µM.

Turning to `Fc1ccc(-c2nc(Cc3ccccc3)nc3c2CNCCC3)cc1` [Example 69, 2-Benzyl-4-(4-fluoro-phenyl)-6,7,8,9-tetrahydro-5H-1,3,6-triaza-benzocycloheptene hydrochloride], the Ki in experiment [1] is 7.1 µM; on rat 5-HT7a receptor it was over 10 µM; in experiment [2] it was 0.65 µM; at 5-HT2B receptor, over 10 µM.

Turning to `CC(C)c1nc(-c2ccc(C(F)(F)F)cc2)c2c(n1)C(C)CNC2` (stereo not shown) [Example 104, 2-Isopropyl-8-methyl-4-(4-trifluoromethyl-phenyl)-5,6,7,8-tetrahydro-pyrido[4,3-d]pyrimidine], the Ki was over 10 µM at rat 5-HT7a receptor, 3 µM in experiment [2], 0.5 µM at 5-HT2B receptor and 0.7 µM on 5-HT2A receptor.

For `CC(C)c1nc(-c2ccsc2)c2c(n1)C(C)CNC2` (stereo not shown) [Example 105, 2-Isopropyl-8-methyl-4-thiophen-3-yl-5,6,7,8-tetrahydro-pyrido[4,3-d]pyrimidine], the Ki at rat 5-HT7a receptor is over 10 µM; in experiment [2], 0.4 µM; at 5-HT2B receptor, 0.1 µM; on 5-HT2A receptor it was 0.04 µM.

As to `CC(C)c1nc2c(c(-c3ccc(F)cc3)n1)CN(Cc1ccccc1)C2` [Example 106, hydrochloride], the Ki on rat 5-HT7a receptor is over 10 µM; in experiment [2] it was over 10 µM; at 5-HT2B receptor, 6.3 µM; on 5-HT2A receptor, 0.09 µM.

With `CNC1CCc2c(nc(C(C)C)nc2-c2ccc(F)cc2)C1` (stereo not shown) [Example 108, [4-(4-Fluoro-phenyl)-2-isopropyl-5,6,7,8-tetrahydro-quinazolin-7-yl]-methyl-amine hydrochloride], the inhibitory constant (Ki) at rat 5-HT7a receptor was over 10 µM; in experiment [2] it was 1 µM; at 5-HT2B receptor, 0.042 µM; on 5-HT2A receptor, 0.018 µM.

`CC(C)c1nc2c(c(-c3ccc(F)cc3)n1)CCC(O)C2` (stereo not shown) [Example 110, 4-(4-Fluoro-phenyl)-2-isopropyl-5,6,7,8-tetrahydro-quinazolin-7-ol]: the Ki is over 10 µM at rat 5-HT7a receptor, 4 µM in experiment [2], 1.2 µM at 5-HT2B receptor and 0.22 µM on 5-HT2A receptor.

For `CC(C)c1nc2c(c(-c3ccc(F)cc3)n1)CCCC2` [Example 111, 4-(4-Fluoro-phenyl)-2-isopropyl-5,6,7,8-tetrahydro-quinazoline], the Ki on rat 5-HT7a receptor is over 10 µM; in experiment [2], over 10 µM; on 5-HT2B receptor, 3.5 µM; on 5-HT2A receptor it was 0.3 µM.

On to `Cc1ccc(-c2cc(CN(C)C)nc(Cc3ccccc3)n2)cc1` [Example 112, (2-Benzyl-6-p-tolyl-pyrimidin-4-ylmethyl)-dimethyl-amine], for which the Ki on rat 5-HT7a receptor is over 10 µM; in experiment [2], over 10 µM; on 5-HT2B receptor, over 10 µM; at 5-HT2A receptor, 0.13 µM.

As to `Cc1ccc(-c2cc(CN3CCN(C)CC3)nc(Cc3ccccc3)n2)cc1` [Example 113, 2-Benzyl-4-(4-methyl-piperazin-1-ylmethyl)-6-p-tolyl-pyrimidine], the Ki at rat 5-HT7a receptor was over 10 µM; in experiment [2], over 10 µM; on 5-HT2B receptor, over 10 µM; on 5-HT2A receptor it was 0.65 µM.

As for `CNCc1cc(-c2ccc(F)cc2)nc(C(C)C)n1` [Example 114, [6-(4-Fluoro-phenyl)-2-isopropyl-pyrimidin-4-ylmethyl]-methyl-amine], the Ki at rat 5-HT7a receptor is over 10 µM; in experiment [2], 1 µM; at 5-HT2B receptor, 0.3 µM; at 5-HT2A receptor, 0.035 µM.

In the case of `Cc1ccc(-c2cc(CCN)nc(Cc3ccccc3)n2)cc1` [Example 115, 2-(2-Benzyl-6-p-tolyl-pyrimidin-4-yl)-ethylamine], the Ki at rat 5-HT7a receptor was 5 µM; in experiment [2], over 10 µM; on 5-HT2B receptor, 5 µM; at 5-HT2A receptor, 1 µM.

For the compound `Cc1ccc(-c2nc(Cc3ccc(F)cc3)ncc2CN(C)C)cc1` [Example 116, [2-(4-Fluoro-benzyl)-4-p-tolyl-pyrimidin-5-ylmethyl]-dimethyl-amine], the Ki on rat 5-HT7a receptor was over 10 µM; in experiment [2], over 10 µM; on 5-HT2B receptor it was over 10 µM; at 5-HT2A receptor it was 2 µM.

Take `Fc1ccc(-c2nc(-c3ccccc3)nc3c2CNCC3)cc1` [Example 117, 4-(4-Fluoro-phenyl)-2-phenyl-5,6,7,8-tetrahydro-pyrido[4,3-d]pyrimidine]: the inhibition constant (Ki) at rat 5-HT7a receptor is over 10 µM; in experiment [2] it was 4 µM; on 5-HT2B receptor, 1 µM; at 5-HT2A receptor it was 0.05 µM.

Turning to `CN(C)CCc1cc(-c2ccc(F)cc2)nc(C(C)(C)C)n1` [Example 167, {2-[2-tert-Butyl-6-(4-fluoro-phenyl)-pyrimidin-4-yl]-ethyl}-dimethyl-amine], the Ki was determined as 0.45 µM at rat 5-HT7a receptor, 0.2 µM in experiment [2], 0.014 µM on 5-HT2B receptor and 0.007 µM on 5-HT2A receptor.
